Legend:
PIM1 = target: T1, PIM1 (Homo sapiens, UniProt P11309); test: Kinase assay; type: biochemical
T1 construct: purchased Promega (ADP-Glo kits) or Reaction Biology Corporation / Eurofins discovery services (external)
Experimental: (§1) The ability of compounds to inhibit kinases was measured using ADP-Glo^Tm assay kits (Promega, Madison, WI, United States of America) or externally using radioisotope based assays (Reaction Biology Corporation, Malvern, PA, United States of America and Eurofins discovery services, France). The ADP-Glo assay was performed as reported previously (Basnet SK et al., Mol Pharmacol 88(5):935-948, 2015).The assay plate was read for luminescence using Envision multi-label plate reader (PerkinElmer, Waltham, MA, United States of America). Half-maximal inhibition (IC50) values were determined from a plot of percent residual activity versus concentration of test compounds using GraphPad Prism software. Ki values were calculated from IC50 values using the Cheng-Prusoff equation: Ki= IC50/ [1 + ([ATP]/Km ATP)], where [ATP] is the ATP concentration used for the IC50 determination and Km ATP for each kinase is determined from an individual experiment.

Aurora A kinase = target: T2, Aurora A kinase (Homo sapiens, UniProt O14965); test: Kinase assay; type: biochemical
T2 construct: purchased Promega (ADP-Glo kits) or Reaction Biology Corporation / Eurofins discovery services (external)
T2 sequence (O14965 1-403): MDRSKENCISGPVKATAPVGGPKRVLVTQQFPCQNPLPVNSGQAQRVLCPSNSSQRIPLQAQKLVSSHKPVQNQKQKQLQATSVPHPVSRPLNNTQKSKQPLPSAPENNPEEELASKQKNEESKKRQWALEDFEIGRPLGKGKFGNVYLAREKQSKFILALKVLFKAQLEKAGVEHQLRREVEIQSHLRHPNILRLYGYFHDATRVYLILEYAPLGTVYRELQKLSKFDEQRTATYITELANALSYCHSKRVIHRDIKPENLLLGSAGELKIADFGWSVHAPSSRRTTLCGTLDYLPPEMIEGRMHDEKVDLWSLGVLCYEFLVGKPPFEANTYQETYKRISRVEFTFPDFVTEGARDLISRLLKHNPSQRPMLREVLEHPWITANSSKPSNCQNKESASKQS
Experimental: as §1

YES kinase = target: T3, YES kinase (Homo sapiens, UniProt P07947); test: Kinase assay; type: biochemical; conditions: expanded panel, read-out: percent inhibition
T3 construct: purchased Promega (ADP-Glo kits) or Reaction Biology Corporation / Eurofins discovery services (external)
Experimental: as §1

FLT3 = target: T4, FLT3 (Homo sapiens, UniProt P36888); test: Kinase assay; type: biochemical; conditions: kinase inhibition profiling (FIG. 2), concentration of 10 µM
T4 construct: purchased Promega (ADP-Glo kits) or Reaction Biology Corporation / Eurofins discovery services (external)
Experimental: as §1

LYN = target: T5, LYN (Homo sapiens, UniProt P07948); test: Kinase assay; type: biochemical; conditions: expanded panel, read-out: percent inhibition
T5 construct: purchased Promega (ADP-Glo kits) or Reaction Biology Corporation / Eurofins discovery services (external)
Experimental: as §1

JAK1 = target: T6, JAK1 (Homo sapiens, UniProt P23458); test: Kinase assay; type: biochemical; conditions: kinase inhibition profiling (FIG. 2), concentration of 10 µM
T6 construct: purchased Promega (ADP-Glo kits) or Reaction Biology Corporation / Eurofins discovery services (external)
Experimental: as §1

Aurora B kinase = target: T7, Aurora B kinase (Homo sapiens, UniProt Q96GD4); test: Kinase assay; type: biochemical; conditions: kinase inhibition profiling (FIG. 2), concentration of 10 µM
T7 construct: purchased Promega (ADP-Glo kits) or Reaction Biology Corporation / Eurofins discovery services (external)
Experimental: as §1

T47D cells = test: Cell cycle analysis (flow cytometry); type: cell-based; conditions: 48-hour treatment; p53 mutant
Experimental: (§2) The effect of Rilpivirine on cell cycle distribution in different cancer cell lines was evaluated by flow cytometric analysis. Briefly, cells were seeded in 6-well plates at a density of 6 × 10^4 cells/well. All plates were incubated overnight at 37° C. in a 5% CO2 incubator. Following the incubation, the test compounds (Rilpivirine (Ril) and comparators, Alisertib (Ali; a known Aurora A inhibitor) and Etravirine (Etra; 4-[[6-amino-5-bromo-2-[(4-cyanophenyl)amino]-4-pyrimidinyl]oxy]-3,5-dimethylbenzonitrile - a structurally similar NNRTI drug compound sold under the brand name Intelence® (Janssen Therapeutics)) were added to individual wells and the plates were incubated at same condition for 24 h, 48 h or 72 h. Subsequently, the medium was removed from the wells and transferred into fluorescence-activated cell sorting (FACS) tubes. The adherent cells remaining were trypsinised, re-suspended in media and transferred into the FACS tubes. Cells were centrifuged, fixed with cold 70% ethanol for 15 min and pelleted. The pelleted cells were then re-suspended in 200 µL propidium iodide (PI) solution (50 µg/mL propidium iodide, 0.1 mg/mL ribonuclease A, 0.1% sodium citrate, 0.1% triton X-100) and incubated in the dark for 1.5 h at room temperature. Following the incubation, 200 µL PBS was added. Samples were assessed using a flow cytometer (Cytoflex; Beckman Coulter Inc, Brea, CA, United States of America) and data were analysed using the Cytexpert software.

PC3 cells = test: Cell cycle analysis (flow cytometry); type: cell-based; conditions: 48 hour treatment; p53 mutant
Experimental: as §2

OVCAR-5 cells = test: Cell cycle analysis (flow cytometry); type: cell-based; conditions: 72 hour, 5 µM, 10 µM and 20 µM; p53 WT
Experimental: as §2

K-562 cells = test: Cell cycle analysis (flow cytometry); type: cell-based; conditions: various concentrations, 24 hour
Experimental: as §2

[1] = system: Miapaca-2 (pancreatic) cancer cell lines; test: Cell cycle analysis (flow cytometry); type: cell-based; conditions: 48 hours; data not shown
Experimental: as §2

Jurkat cells = test: Cell cycle analysis (flow cytometry); type: cell-based; conditions: various concentrations, 24 hour
Experimental: as §2

HL-60 cells = test: Cell cycle analysis (flow cytometry); type: cell-based
Experimental: as §2

U-937 cells = test: Cell cycle analysis (flow cytometry); type: cell-based; conditions: various concentrations, 24 hour
Experimental: as §2

NB4 cells = test: Cell cycle analysis (flow cytometry); type: cell-based; conditions: various concentrations, 24 hour
Experimental: as §2

SKOV-3 cells = test: Cell cycle analysis (flow cytometry); type: cell-based; conditions: 72 hours, 5 µM, 10 µM and 20 µM; p53 mutant; data not shown
Experimental: as §2

[2] = system: p53 wild-type (WT) A2780 cells; test: Cell cycle analysis (flow cytometry); type: cell-based; conditions: 24, 48 and 72 hour
Experimental: as §2

[3] = 1 µM, expanded panel, read-out: percent inhibition
[4] = kinase inhibition profiling (FIG. 2), concentration of 10 µM

T1 sequence (P11309 whole entry): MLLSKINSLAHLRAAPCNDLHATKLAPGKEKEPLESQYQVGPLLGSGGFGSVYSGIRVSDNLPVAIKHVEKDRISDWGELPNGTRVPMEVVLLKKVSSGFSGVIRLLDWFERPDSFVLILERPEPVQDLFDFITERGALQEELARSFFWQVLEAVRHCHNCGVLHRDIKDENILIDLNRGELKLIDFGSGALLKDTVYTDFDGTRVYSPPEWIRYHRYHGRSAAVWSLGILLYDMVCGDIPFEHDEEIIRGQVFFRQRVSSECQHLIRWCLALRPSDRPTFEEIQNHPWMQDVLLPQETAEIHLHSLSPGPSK
T5 sequence (P07948 whole entry): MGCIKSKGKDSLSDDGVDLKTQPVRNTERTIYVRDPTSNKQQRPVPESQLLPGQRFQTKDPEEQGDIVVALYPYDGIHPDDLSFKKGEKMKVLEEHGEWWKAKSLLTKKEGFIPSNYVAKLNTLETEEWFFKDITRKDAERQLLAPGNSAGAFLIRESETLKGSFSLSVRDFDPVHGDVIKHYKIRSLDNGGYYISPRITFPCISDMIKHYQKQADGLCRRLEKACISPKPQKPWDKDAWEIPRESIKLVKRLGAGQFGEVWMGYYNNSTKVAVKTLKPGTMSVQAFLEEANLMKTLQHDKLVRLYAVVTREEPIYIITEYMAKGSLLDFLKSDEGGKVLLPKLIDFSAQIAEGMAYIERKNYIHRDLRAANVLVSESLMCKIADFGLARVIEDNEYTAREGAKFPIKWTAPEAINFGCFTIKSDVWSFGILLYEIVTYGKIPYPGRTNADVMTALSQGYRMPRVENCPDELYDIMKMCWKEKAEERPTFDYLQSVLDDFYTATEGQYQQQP
T6 sequence (P23458 whole entry): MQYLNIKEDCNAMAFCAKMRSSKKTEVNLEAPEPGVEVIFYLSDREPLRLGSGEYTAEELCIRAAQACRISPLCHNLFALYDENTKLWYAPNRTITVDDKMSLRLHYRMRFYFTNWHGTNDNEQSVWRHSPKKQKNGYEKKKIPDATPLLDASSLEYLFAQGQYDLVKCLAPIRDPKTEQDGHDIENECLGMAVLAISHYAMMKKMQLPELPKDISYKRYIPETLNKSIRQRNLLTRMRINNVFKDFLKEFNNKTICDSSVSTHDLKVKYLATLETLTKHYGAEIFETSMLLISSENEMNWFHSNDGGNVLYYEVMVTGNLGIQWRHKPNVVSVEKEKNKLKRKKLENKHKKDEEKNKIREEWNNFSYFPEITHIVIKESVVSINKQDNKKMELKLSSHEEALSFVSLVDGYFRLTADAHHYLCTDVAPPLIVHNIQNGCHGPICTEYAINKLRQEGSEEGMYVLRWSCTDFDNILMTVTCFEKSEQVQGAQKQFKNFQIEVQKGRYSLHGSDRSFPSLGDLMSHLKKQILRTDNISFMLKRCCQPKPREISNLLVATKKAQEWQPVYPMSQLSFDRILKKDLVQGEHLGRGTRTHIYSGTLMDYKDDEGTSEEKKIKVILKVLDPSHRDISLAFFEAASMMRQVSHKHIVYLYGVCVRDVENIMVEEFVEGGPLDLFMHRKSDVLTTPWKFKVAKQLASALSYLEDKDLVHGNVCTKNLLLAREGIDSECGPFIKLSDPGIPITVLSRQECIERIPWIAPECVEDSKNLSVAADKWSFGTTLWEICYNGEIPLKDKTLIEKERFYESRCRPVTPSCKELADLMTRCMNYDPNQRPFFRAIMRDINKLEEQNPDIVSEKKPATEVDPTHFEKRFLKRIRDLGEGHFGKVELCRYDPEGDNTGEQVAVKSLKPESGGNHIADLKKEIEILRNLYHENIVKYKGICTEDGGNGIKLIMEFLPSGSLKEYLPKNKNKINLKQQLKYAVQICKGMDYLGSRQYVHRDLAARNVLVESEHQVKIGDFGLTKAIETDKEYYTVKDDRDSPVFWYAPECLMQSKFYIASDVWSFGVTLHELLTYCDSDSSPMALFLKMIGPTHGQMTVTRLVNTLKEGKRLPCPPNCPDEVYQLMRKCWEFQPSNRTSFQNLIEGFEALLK
T4 sequence (P36888 27-993): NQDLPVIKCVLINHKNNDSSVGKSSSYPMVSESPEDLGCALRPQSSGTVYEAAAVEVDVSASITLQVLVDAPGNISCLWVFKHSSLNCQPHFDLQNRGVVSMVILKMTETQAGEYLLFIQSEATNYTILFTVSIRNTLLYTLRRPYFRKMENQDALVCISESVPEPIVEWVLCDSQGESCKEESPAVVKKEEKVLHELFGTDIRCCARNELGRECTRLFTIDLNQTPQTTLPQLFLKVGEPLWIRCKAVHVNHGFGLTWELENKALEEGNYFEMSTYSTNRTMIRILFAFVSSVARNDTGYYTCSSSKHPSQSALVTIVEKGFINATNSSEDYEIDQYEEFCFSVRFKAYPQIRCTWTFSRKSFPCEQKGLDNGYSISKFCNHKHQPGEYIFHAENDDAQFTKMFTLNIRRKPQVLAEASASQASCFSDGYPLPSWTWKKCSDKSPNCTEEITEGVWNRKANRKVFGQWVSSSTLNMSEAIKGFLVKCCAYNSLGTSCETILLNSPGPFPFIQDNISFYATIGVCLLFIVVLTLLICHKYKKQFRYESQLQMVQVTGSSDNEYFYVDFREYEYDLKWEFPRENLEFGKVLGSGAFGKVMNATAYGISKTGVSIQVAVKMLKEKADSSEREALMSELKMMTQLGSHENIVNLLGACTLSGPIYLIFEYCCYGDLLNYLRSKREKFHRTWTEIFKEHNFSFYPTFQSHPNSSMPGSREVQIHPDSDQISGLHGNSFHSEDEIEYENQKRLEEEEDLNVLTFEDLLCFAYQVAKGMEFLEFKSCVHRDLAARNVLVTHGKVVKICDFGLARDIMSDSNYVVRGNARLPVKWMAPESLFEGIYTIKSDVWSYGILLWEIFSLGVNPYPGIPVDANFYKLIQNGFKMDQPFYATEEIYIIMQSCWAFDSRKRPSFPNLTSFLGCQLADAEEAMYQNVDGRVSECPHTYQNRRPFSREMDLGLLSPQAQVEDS
T7 sequence (Q96GD4 whole entry): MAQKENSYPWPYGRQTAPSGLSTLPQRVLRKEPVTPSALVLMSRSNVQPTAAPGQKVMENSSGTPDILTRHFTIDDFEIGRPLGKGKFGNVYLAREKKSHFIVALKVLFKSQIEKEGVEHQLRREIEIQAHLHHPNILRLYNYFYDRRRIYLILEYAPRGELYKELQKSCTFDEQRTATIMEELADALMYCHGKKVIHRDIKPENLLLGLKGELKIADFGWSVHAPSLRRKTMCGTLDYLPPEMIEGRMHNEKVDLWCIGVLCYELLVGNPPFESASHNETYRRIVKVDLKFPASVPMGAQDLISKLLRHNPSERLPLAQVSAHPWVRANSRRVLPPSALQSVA
T3 sequence (P07947 whole entry): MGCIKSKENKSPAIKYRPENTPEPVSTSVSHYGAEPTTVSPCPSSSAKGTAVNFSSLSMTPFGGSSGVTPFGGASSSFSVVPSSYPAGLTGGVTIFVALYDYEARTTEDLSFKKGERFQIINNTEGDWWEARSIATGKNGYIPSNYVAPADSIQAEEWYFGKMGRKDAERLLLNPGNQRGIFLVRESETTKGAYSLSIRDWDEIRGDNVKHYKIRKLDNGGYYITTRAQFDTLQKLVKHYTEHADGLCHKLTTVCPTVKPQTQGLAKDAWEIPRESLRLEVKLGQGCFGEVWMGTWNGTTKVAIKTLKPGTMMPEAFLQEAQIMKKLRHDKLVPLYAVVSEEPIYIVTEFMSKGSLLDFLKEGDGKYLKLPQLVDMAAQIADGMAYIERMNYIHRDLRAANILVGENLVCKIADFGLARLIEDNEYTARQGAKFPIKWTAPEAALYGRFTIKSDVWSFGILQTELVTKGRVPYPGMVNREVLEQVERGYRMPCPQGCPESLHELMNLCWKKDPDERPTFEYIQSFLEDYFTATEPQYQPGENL

inhibition at 1 µM (PIM1; [3]): 78%
inhibitory activity against PIM1 (PIM1; [4]): some inhibitory activity
inhibition at 1 µM (Aurora A kinase; [3]): 86%
Ki (Aurora A kinase; cell free kinase assay): 130 nM
inhibitory activity against Aurora A (Aurora A kinase; [4]): potently inhibits
inhibition at 1 µM (YES kinase): 83%
inhibitory activity against FLT3 (FLT3): some inhibitory activity
inhibition at 1 µM (LYN): 77%
inhibitory activity against JAK1 (JAK1): some inhibitory activity
inhibitory activity against Aurora B (Aurora B kinase): some inhibitory activity
Compound: Cc1cc(/C=C/C#N)cc(C)c1Nc1ccnc(Nc2ccc(C#N)cc2)n1 [Rilpivirine, 4-[[4-[4-[(E)-2-cyanoethenyl]-2,6-dimethylanilino]pyrimidin-2-yl]amino]benzonitrile]
cell cycle arrest (T47D cells): arrest T47D breast cancer cells in G2/M phase
cell cycle arrest (PC3 cells): induce G2/M arrest
cell cycle arrest (OVCAR-5 cells): arrests the cells in the G1 phase or accumulated in Sub-G1 phase at higher concentrations
cell cycle arrest (K-562 cells): arrests both of these cell lines in the G2/M phase in a dose-dependent manner
cell cycle arrest [1]: G2/M arrest increased with increasing concentrations of the drug
cell cycle arrest (Jurkat cells): arrests NB4 and Jurkat cells in the G2/M phase in a dose-dependent manner
cell cycle arrest (HL-60 cells; 5, 10 and 20 µM for 24 hrs, p53 null): arrested in the G2/M Phase
numbers of cells in G2/M (HL-60 cells; 24 hour treatment, versus diluent only): approximately doubled
cell cycle arrest (U-937 cells): arrests both of these cell lines in the G2/M phase in a dose-dependent manner
cell cycle arrest (NB4 cells): arrests NB4 and Jurkat cells in the G2/M phase in a dose-dependent manner
cell cycle arrest (SKOV-3 cells): caused G2/M arrest in a dose-dependent manner
cell cycle arrest ([2]; 10 µM): arrests the cells in the G1 phase
cell cycle distribution ([2]; 20 µM): increased number of cells accumulated in Sub-G1 phase
